Measurements taken from patent US9775902B2, “Compounds and methods for treatment of stroke” (FIBROGEN, INC, priority 2006, dated 2017).
Read-outs that look alike come from different tables or passages of the source.

Experiments:
[1] = tested on: erythropoietin; experiment: Plasma EPO in mice after intravenous injection; format: in vivo, Swiss Webster mice; conditions: mouse plasma, 20 mg/kg i.v., four hours after injection; for fold induction at 20 mg/kg: iv, 4 h, read-out: EPO Fold Increase; for EPO: mouse EPO ELISA kit (**)
Summary of the method: (§1)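 Male Swiss Webster mice (29-34 g) received 20 mg/kg compound or vehicle by tail-vein injection in 5% dextrose with equimolar NaOH or meglumine. Plasma was collected 4 h later, and EPO and VEGF were measured by ELISA.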

[2] = tested on: vascular endothelial growth factor (VEGF); experiment: VEGF expression in Kelly neuroblastoma cells; format: cell-based; conditions: for VEGF: conditioned media after overnight incubation
Summary of the method: (§2)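 Kelly neuroblastoma cells treated overnight with compound, 1% DMSO as negative control. EPO and VEGF secreted into conditioned media measured by QUANTIKINE immunoassay.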

[3] = tested on: erythropoietin (EPO); experiment: EPO expression in Kelly neuroblastoma cells; format: cell-based; conditions: for EPO: conditioned media after overnight incubation
Summary of the method: as §2

[4] = tested on: VEGF; experiment: Plasma VEGF in mice after intravenous injection; format: in vivo, Swiss Webster mice; conditions: mouse plasma, 20 mg/kg i.v., four hours after injection; for fold induction at 20 mg/kg: iv, 4 h, read-out: VEGF Fold Increase
Summary of the method: as §1

[5] = tested on: erythropoietin (EPO); experiment: EPO expression in Hep3B cells (QUANTIKINE immunoassay of conditioned media); format: cell-based, Human; conditions: for Fold Increase Over Control: EPO, vs 1% DMSO control; for EPO: conditioned media after overnight incubation with compound
Summary of the method: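 Confluent Hep3B cells were switched to OPTI-MEM for about 24 h (20% O2, 5% CO2, 37 °C), then treated overnight with compound or 1% DMSO vehicle. EPO secreted into the conditioned medium was measured by QUANTIKINE immunoassay.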

[6] = tested on: C57BL/6 mice, permanent occlusion of the MCA; experiment: Permanent middle cerebral artery occlusion (pMCAO) in C57BL/6 mice: infarct volume and edema; format: in vivo; conditions: for Percent Reduction in Edema / inhibition in vivo at up to 20 mg/kg: C57BL/6 mice pMCAO, 20-60 mg/kg i.v., compound given 0 hr; for inhibition in vivo at up to 20 mg/kg / inhibition in vivo at 60 mg/kg: Mus musculus, iv, read-out: Percent Reduction in Infarct Volume; for inhibition in vivo at up to 20 mg/kg: 24 h, 24 hours after MCA occlusion; for inhibition in vivo at 60 mg/kg: C57BL/6 pMCAO
Summary of the method: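 Male mice (25-35 g) under avertin anaesthesia had the distal MCA coagulated through a craniotomy; compound given as single i.v. bolus (20-60 mg/kg, 6 ml/kg in 5% dextrose with equimolar meglumine or NaOH) before or up to 8 h after occlusion.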

With N#Cc1nc(C(=O)NCC(=O)O)c(O)c2c(Oc3ccc(F)cc3)cccc12 [Compound AS, {[1-Cyano-5-(4-fluoro-phenoxy)-4-hydroxy-isoquinoline-3-carbonyl]-amino}-acetic acid] the fold induction at 20 mg/kg [1] was 102, the EPO [1] was 49305 pg/mL and the “VEGF Fold Increase” value [2] was 5.6. For the same molecule, the VEGF [2] was 8197 pg/mL, the “EPO Fold Increase” value [3] was 11.72 and the EPO [3] was 221.5 mIU/ml. For the same molecule, the fold induction at 20 mg/kg [4] was 0.57, the VEGF [4] was 20 pg/mL and the “Fold Increase Over Control” value [5] was 10.7. The EPO [5] was 40.5 mIU/ml, the “Percent Reduction in Edema” value [6] was 54% and the inhibition in vivo at up to 20 mg/kg [6] was 50%.
With COc1ccc(Oc2ccc3c(O)c(C(=O)NCC(=O)O)ncc3c2)cc1 [Compound F, {[4-Hydroxy-7-(4-methoxy-phenoxy)-isoquinoline-3-carbonyl]-amino}-acetic acid] the fold induction at 20 mg/kg [1] was 254, the EPO [1] was 2283 pg/mL and the “VEGF Fold Increase” value [2] was 16.2. The VEGF [2] was 2564.9 pg/mL, the “EPO Fold Increase” value [3] was 10.5 and the EPO [3] was 65 mIU/ml. The fold induction at 20 mg/kg [4] was 2.21, the VEGF [4] was 64 pg/mL and the “Fold Increase Over Control” value [5] was 3.0. The EPO [5] was 369.4 mIU/ml, the “Percent Reduction in Edema” value [6] was 47% and the inhibition in vivo at 60 mg/kg ([6]; 0 h, 60 mg/kg single i.v. bolus (Meglumine vehicle), 0 hr after MCA occlusion) was 43%. It also gave an inhibition in vivo at 60 mg/kg ([6]; 0 h, 60 mg/kg single i.v. bolus (NaOH vehicle), 0 hr after MCA occlusion) of 50%, an inhibition in vivo at 60 mg/kg ([6]; 1 h, 60 mg/kg single i.v. bolus (NaOH vehicle), 1 hr after MCA occlusion) of 62% and an inhibition in vivo at 60 mg/kg ([6]; 3 h, 60 mg/kg single i.v. bolus (NaOH vehicle), 3 hr after MCA occlusion) of 53%. For the same molecule, the inhibition in vivo at 60 mg/kg ([6]; 4 h, 60 mg/kg single i.v. bolus (Meglumine vehicle), 4 hr after MCA occlusion) was 36%, the inhibition in vivo at 60 mg/kg ([6]; 5 h, 60 mg/kg single i.v. bolus (NaOH vehicle), 5 hr after MCA occlusion) was 55% and the inhibition in vivo at 60 mg/kg ([6]; 6 h, 60 mg/kg single i.v. bolus (Meglumine vehicle), 6 hr after MCA occlusion) was 15%. The inhibition in vivo at 60 mg/kg ([6]; 8 h, 60 mg/kg single i.v. bolus (Meglumine vehicle), 8 hr after MCA occlusion) was 8% and the inhibition in vivo at up to 20 mg/kg [6] was 68%.
Cc1cccc(C)c1Oc1ccc2c(C#N)nc(C(=O)NCC(=O)O)c(O)c2c1 [Compound AL, {[1-Cyano-6-(2,6-dimethyl-phenoxy)-4-hydroxy-isoquinoline-3-carbonyl]-amino}-acetic acid] was tested, and the fold induction at 20 mg/kg [1] was 188, the EPO [1] was 22514 pg/mL and the “VEGF Fold Increase” value [2] was 3.8. For the same molecule, the VEGF [2] was 5499 pg/mL, the “EPO Fold Increase” value [3] was 11.31 and the EPO [3] was 213.8 mIU/ml. The fold induction at 20 mg/kg [4] was 2.06, the VEGF [4] was 130 pg/mL and the “Fold Increase Over Control” value [5] was 13.9. The EPO [5] was 74.8 mIU/ml, the “Percent Reduction in Edema” value [6] was 73% and the inhibition in vivo at up to 20 mg/kg [6] was 43%.
